Source: PubChem BioAssay AID1918936 (Molecular Pharmacology Branch, DTP, NCI, 2023)

Test system: 349418-098-R-PDC complex spheroid viability
Assay: Anticancer human tumor 349418-098-R-PDC patient-derived lung adenocarcinoma cell line growth inhibition
Settings: for IC50: curve of first compound; for viability, T/C: stronger effect = lower value
In short: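 Complex spheroids of tumor cells with HUVEC and human MSCs, exposed to iadademstat combined with other agents. Each agent tested in half-log steps from near clinical Cmax (else 10 microM top), DMSO ≤0.25%.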

[1] = second compound 0.1 µM, first compound 0.0316 µM
[2] = second compound 0.1 µM, first compound 0.1 µM
[3] = second compound 0.1 µM, first compound 0.316 µM
[4] = second compound 0.1 µM, first compound 1 µM
[5] = second compound 0.1 µM, first compound 3.16 µM
[6] = second compound 0.1 µM, first compound 10 µM
[7] = second compound 0.316 µM, first compound 0.0316 µM
[8] = second compound 0.316 µM, first compound 0.1 µM
[9] = second compound 0.316 µM, first compound 0.316 µM
[10] = second compound 0.316 µM, first compound 1 µM
[11] = second compound 0.316 µM, first compound 3.16 µM
[12] = second compound 0.316 µM, first compound 10 µM
[13] = second compound 1 µM, first compound 0.0316 µM
[14] = second compound 1 µM, first compound 0.1 µM
[15] = second compound 1 µM, first compound 0.316 µM
[16] = second compound 1 µM, first compound 1 µM
[17] = second compound 1 µM, first compound 3.16 µM
[18] = second compound 1 µM, first compound 10 µM
[19] = second compound 3.16 µM, first compound 0.0316 µM
[20] = second compound 3.16 µM, first compound 0.1 µM
[21] = second compound 3.16 µM, first compound 0.316 µM
[22] = second compound 3.16 µM, first compound 1 µM
[23] = second compound 3.16 µM, first compound 3.16 µM
[24] = second compound 3.16 µM, first compound 10 µM
[25] = second compound 10 µM, first compound 0.0316 µM
[26] = second compound 10 µM, first compound 0.1 µM
[27] = second compound 10 µM, first compound 0.316 µM
[28] = second compound 10 µM, first compound 1 µM
[29] = second compound 10 µM, first compound 3.16 µM
[30] = second compound 10 µM, first compound 10 µM
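Further: spheroids exposed to agents for seven days before readout.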
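Wherever viability, T/C is given: 100% = DMSO vehicle control wells.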

Structure (SMILES)	IC50 (second compound 0.1 µM)	IC50 (second compound 0.316 µM)	IC50 (second compound 1 µM)	IC50 (second compound 3.16 µM)	IC50 (second compound 10 µM)	viability, T/C [1]	viability, T/C [2]	viability, T/C [3]	viability, T/C [4]	viability, T/C [5]	viability, T/C [6]	viability, T/C [7]	viability, T/C [8]	viability, T/C [9]	viability, T/C [10]	viability, T/C [11]	viability, T/C [12]	viability, T/C [13]	viability, T/C [14]	viability, T/C [15]	also measured
CC(C)c1c(-c2ccccc2)nc2c(C#N)c[nH]n2c1=O + NC1CC1c1ccc(-c2cccc(O)c2)cc1	> 10 µM	> 10 µM	> 10 µM	> 10 µM	> 10 µM	126%	122%	119%	106%	111%	80.7%	95.6%	113%	118%	106%	98.7%	81.8%	114%	103%	120%	viability, T/C [16]: 99.2%; viability, T/C [17]: 95.7%; viability, T/C [18]: 102%; viability, T/C [19]: 104%; viability, T/C [20]: 106%; viability, T/C [21]: 111%; viability, T/C [22]: 100%; viability, T/C [23]: 104%; viability, T/C [24]: 91.2%; viability, T/C [25]: 86.1%; viability, T/C [26]: 82.4%; viability, T/C [27]: 86.7%; viability, T/C [28]: 75.3%; viability, T/C [29]: 62.5%; viability, T/C [30]: 64.8%
CC1(C)CCC(CN2CCN(c3ccc(C(=O)NS(=O)(=O)c4ccc(NCC5CCOCC5)c([N+](=O)[O-])c4)c(Oc4cnc5[nH]ccc5c4)c3)CC2)=C(c2ccc(Cl)cc2)C1 + NC1CCC(NC2CC2c2ccccc2)CC1	4.25 µM	4.54 µM	4.3 µM	4.55 µM	4.24 µM	110%	110%	99.3%	96.3%	62.5%	11.8%	115%	105%	103%	103%	67.9%	11.7%	108%	111%	105%	viability, T/C [16]: 96.1%; viability, T/C [17]: 64.4%; viability, T/C [18]: 10.4%; viability, T/C [19]: 103%; viability, T/C [20]: 101%; viability, T/C [21]: 104%; viability, T/C [22]: 94.1%; viability, T/C [23]: 67.7%; viability, T/C [24]: 12%; viability, T/C [25]: 62.9%; viability, T/C [26]: 81.2%; viability, T/C [27]: 91%; viability, T/C [28]: 87.4%; viability, T/C [29]: 63%; viability, T/C [30]: 11.9%
